Tests used:
[1] = tested on: Liver microsome; assay: Drug metabolism in rat liver microsomes incubated with 10 uM ceratamine A for 60 mins assessed as metabolite level in presence of 1 mM NADPH at pH 7.4 and 37 degC by Quadrupole-time-of-flight mass spectrometry; type: ADME; conditions: pH 7.4, 1 h
[2] = tested on: Liver microsome; assay: Drug metabolism in rat liver microsomes incubated with 10 uM ceratamine B for 60 mins assessed as metabolite level in presence of 1 mM NADPH at pH 7.4 and 37 degC by Quadrupole-time-of-flight mass spectrometry; type: ADME; conditions: pH 7.4, 1 h
[3] = Retention time by reverse phase HPLC-UV chromatography; type: physicochemical
[4] = tested on: Liver microsome; assay: Drug metabolism in rat liver microsomes incubated with 10 uM ceratamine A for 60 mins assessed as metabolite formation in presence of 1 mM NADPH at pH 7.4 and 37 degC by reverse phase HPLC-UV chromatography; type: ADME; conditions: pH 7.4, 1 h
[5] = tested on: Liver microsome; assay: Drug metabolism in rat liver microsomes incubated with 10 uM ceratamine B for 60 mins assessed as metabolite formation in presence of 1 mM NADPH at pH 7.4 and 37 degC by reverse phase HPLC-UV chromatography; type: ADME; conditions: pH 7.4, 1 h

Compound | Drug metabolism [1] | Drug metabolism [2] | Retention_time [3] [min] | Drug metabolism [4] | Drug metabolism [5]
COc1c(Br)cc(Cc2c3nc(N)nc-3cc[nH]c2=O)cc1Br | metabolite_detected | metabolite_detected | 29.6 | – | –
CNc1nc2ccn(C)c(=O)c(Cc3cc(Br)c(OC)c(Br)c3)c-2n1 [CERATAMINE A] | – | – | – | metabolite_detected | –
CNc1nc2cc[nH]c(=O)c(Cc3cc(Br)c(OC)c(Br)c3)c-2n1 | – | – | – | – | metabolite_detected
CNc1nc2cc[nH]c(=O)c(Cc3cc(Br)c(O)c(Br)c3)c-2n1 | metabolite_detected | metabolite_detected | 20.1 | – | –

Reference: ChEMBL document CHEMBL3351870, “Structure elucidation of phase I metabolites of the microtubule perturbagens: ceratamines A and B” (J Nat Prod, 2014)
